pIC50: −log10 of the molar value.
How the values were obtained:
[1] = target: T1, human URAT1 (Homo sapiens, UniProt Q96S37); assay: Test for inhibition of uric acid transport using human URAT1-expressing cells; type: cell-based; conditions: HEK 293 cells expressing human URAT1; 14C-labeled uric acid 25 μM; uptake 37° C. for 5 min; read-out: IC50 (concentration of the compound at which the uric acid transport rate is inhibited by 50%)
T1 construct: Full-length cDNA of human URAT1 (hURAT1)
T1 sequence (Q96S37 1-553): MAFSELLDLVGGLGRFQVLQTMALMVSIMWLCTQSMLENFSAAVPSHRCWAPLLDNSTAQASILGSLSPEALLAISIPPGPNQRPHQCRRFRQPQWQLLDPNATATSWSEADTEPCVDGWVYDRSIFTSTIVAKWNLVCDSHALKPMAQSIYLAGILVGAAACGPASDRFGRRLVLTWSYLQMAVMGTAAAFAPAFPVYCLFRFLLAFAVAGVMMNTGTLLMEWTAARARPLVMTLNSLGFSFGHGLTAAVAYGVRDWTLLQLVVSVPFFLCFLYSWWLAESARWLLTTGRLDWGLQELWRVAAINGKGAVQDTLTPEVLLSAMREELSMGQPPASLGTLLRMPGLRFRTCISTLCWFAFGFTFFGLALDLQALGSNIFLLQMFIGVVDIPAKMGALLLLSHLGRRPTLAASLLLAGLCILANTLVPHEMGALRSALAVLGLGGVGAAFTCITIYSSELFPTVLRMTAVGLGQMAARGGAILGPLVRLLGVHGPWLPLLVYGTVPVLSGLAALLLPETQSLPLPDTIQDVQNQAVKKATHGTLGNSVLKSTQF
Procedure: Test for Inhibition of Uric Acid Transport Using Human URAT1-Expressing Cells
2-(5-chloropyridin-3-yl)-1-(2,5-dichlorobenzyl)-4-methyl-1H-imidazole-5-carboxylic acid was dissolved in DMSO (produced by Sigma) to a concentration of 20 mM and the concentration was subsequently adjusted to a value desired for use. Full-length cDNA of human URAT1 (hURAT1) (produced by OriGene Technologies, Inc., NCBI Reference Sequence: NM 144585) was subcloned into an expression vector, pCMV6-Kan/Neo (produced by OriGene Technologies, Inc.), and hURAT1 gene was transfected into human embryonic kidney-derived cells (HEK 293 cells) by liposome method using Lipofectamine 2000 (produced by Invitrogen Corporation), whereupon HEK 293 cells expressing human URAT1 gene were selected on the basis of Geneticin resistance. […]
After the medium was removed by aspiration from each well, the medium was replaced with a solution obtained by substituting NaCl in Hank's Balanced Salt Solution (HBSS) with Na gluconate (hereinafter, HBSS/Na-gluconate) and the cells were preincubated at 37° C. for about 10 minutes. […] The cell sample and a liquid scintillation liquid, ULTIMA GOLD (produced by PerkinElmer, Inc.) were mixed and the radioactivity was measured by a liquid scintillation counter (Beckman Coulter, Inc.). […]

[2] = system: Cebus apella; assay: Drug efficacy evaluation test for Cebus apella (uric acid excretion rate); type: in vivo; conditions: 3 mg/kg to 30 mg/kg in 0.5% methylcellulose, administered from the nasal cavity to the stomach, samples up to 24 hours
Procedure: Drug Efficacy Evaluation Test for Cebus Apella 2-(5-chloropyridin-3-yl)-1-(2,5-dichlorobenzyl)-4-methyl-1H-imidazole-5-carboxylic acid (3 mg/kg to 30 mg/kg) dispersed in a 0.5% methylcellulose solution was administered to Cebus apella from the nasal cavity to the stomach using a disposable catheter and a syringe barrel. Blood samples were taken before administration and 30 minutes, 1 hour, 2 hours, 4 hours, 8 hours, 12 hours, and 24 hours after administration; and urine samples were collected for the time intervals of immediately after to 4 hours after administration, from 4 hours to 8 hours after administration, from 8 hours to 16 hours after administration, and from 16 hours to 24 hours after administration. Concentrations of uric acid and creatinine in the blood and urine samples collected were measured by an automatic analyzer (JEOL Ltd.). Uric acid and […] were measured using L-type Wako UA•F (Wako Pure Chemicals Industries, Ltd.) and L-type Creatine F (Wako Pure Chemicals Industries, Ltd.), respectively. Uric acid clearance was calculated from the uric acid concentrations in blood and urine and, similarly, creatinine clearance was calculated from the creatinine concentrations.

Cc1nc(-c2cncc(Cl)c2)n(Cc2cc(Cl)ccc2Cl)c1C(=O)O [2-(5-chloropyridin-3-yl)-1-(2,5-dichlorobenzyl)-4-methyl-1H-imidazole-5-carboxylic acid]
pIC50 [1]: ≥ 6.70
activity to promote uric acid excretion (uric acid excretion rate) [2]: excellent activity to promote uric acid excretion

From patent publication US20170144987A1, “NOVEL CRYSTALLINE POLYMORPHS OF PYRIDINE DERIVATIVE AND METHOD FOR PRODUCING THE SAME” (TEIJIN PHARMA LIMITED, priority 2014, published 2017)
